Laboratory results taken from ChEMBL document CHEMBL1201862, “PubChem BioAssay data set” (2004).
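48-hour exposure; five concentrations; linearly interpolated endpoints. GI50 is the concentration that inhibits growth by half.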 Calls of active or inactive are those of the source. No stated cut-off is given here; in the data, active = GI50 up to about 1.1 µM and inactive = higher.

Columns and labels:
Assay in all cases: NCI tumour cell line growth inhibition, 48 h
LOX IMVI = test system: LOX IMVI
NCI-H226 = test system: NCI-H226
HCC 2998 = test system: HCC 2998
Malme-3M = test system: Malme-3M
NCI-H460 = test system: NCI-H460
SNB-19 = test system: SNB-19
TK-10 = test system: TK-10
SK-MEL-28 = test system: SK-MEL-28
UO-31 = test system: UO-31
SK-MEL-5 = test system: SK-MEL-5
HCT-15 = test system: HCT-15
KM12 = test system: KM12
SK-OV-3 = test system: SK-OV-3
MDA-MB-231 = test system: MDA-MB-231
COLO 205 = test system: COLO 205
MCF7 = test system: MCF7
A498 = test system: A498
RXF 393 = test system: RXF 393
SK-MEL-2 = test system: SK-MEL-2
T47D = test system: T47D
SF-295 = test system: SF-295
CAKI-1 = test system: CAKI-1
MDA-MB-435 = test system: MDA-MB-435
SN12C = test system: SN12C
OVCAR-3 = test system: OVCAR-3
MDA-N = test system: MDA-N
M14 = test system: M14
PC-3 = test system: PC-3
U-251 = test system: U-251
HCT-116 = test system: HCT-116
SW-620 = test system: SW-620
OVCAR-4 = test system: OVCAR-4
786-0 = test system: 786-0
HOP-62 = test system: HOP-62
K562 = test system: K562
NCI/ADR-RES = test system: NCI/ADR-RES
HOP-92 = test system: HOP-92
A549 = test system: A549
SNB-75 = test system: SNB-75
MOLT-4 = test system: MOLT-4
NCI-H522 = test system: NCI-H522
SF-268 = test system: SF-268
RPMI-8226 = test system: RPMI-8226
ACHN = test system: ACHN
OVCAR-8 = test system: OVCAR-8
BT-549 = test system: BT-549
NCI-H23 = test system: NCI-H23
UACC-257 = test system: UACC-257
SF-539 = test system: SF-539
OVCAR-5 = test system: OVCAR-5
EKVX = test system: EKVX
IGROV-1 = test system: IGROV-1

c1cc2c(c(-c3c4ccccc4nc4ccccc34)c1)CC1(CC2)OCCO1 was tested, and the GI50 (LOX IMVI) was > 100 µM (inactive), the GI50 (NCI-H226) was > 100 µM (inactive) and the GI50 (HCC 2998) was > 100 µM (inactive). For the same compound, the GI50 (Malme-3M) was > 100 µM (inactive), the GI50 (NCI-H460) was > 100 µM (inactive) and the GI50 (SNB-19) was > 100 µM (inactive). The GI50 (TK-10) was > 100 µM (inactive), the GI50 (SK-MEL-28) was > 100 µM (inactive) and the GI50 (UO-31) was > 100 µM (inactive). The GI50 (SK-MEL-5) was > 100 µM (inactive), the GI50 (HCT-15) was > 100 µM and the GI50 (KM12) was > 100 µM (inactive). The GI50 (SK-OV-3) was > 100 µM (inactive), the GI50 (MDA-MB-231) was > 100 µM (inactive) and the GI50 (COLO 205) was > 100 µM (inactive). The GI50 (MCF7) was > 100 µM (inactive), the GI50 (A498) was > 100 µM (inactive) and the GI50 (RXF 393) was > 100 µM (inactive). For the same compound, the GI50 (SK-MEL-2) was > 100 µM (inactive), the GI50 (T47D) was > 100 µM (inactive) and the GI50 (SF-295) was > 100 µM (inactive). For the same compound, the GI50 (CAKI-1) was > 100 µM (inactive), the GI50 (MDA-MB-435) was > 100 µM (inactive) and the GI50 (SN12C) was > 100 µM (inactive). For the same compound, the GI50 (OVCAR-3) was > 100 µM (inactive), the GI50 (MDA-N) was > 100 µM (inactive) and the GI50 (M14) was > 100 µM (inactive). The GI50 (PC-3) was > 100 µM (inactive), the GI50 (U-251) was > 100 µM (inactive) and the GI50 (HCT-116) was > 100 µM (inactive). The GI50 (SW-620) was > 100 µM (inactive), the GI50 (OVCAR-4) was > 100 µM (inactive) and the GI50 (786-0) was > 100 µM (inactive). For the same compound, the GI50 (HOP-62) was > 100 µM (inactive), the GI50 (K562) was > 100 µM (inactive) and the GI50 (NCI/ADR-RES) was > 100 µM (inactive). The GI50 (HOP-92) was > 100 µM (inactive), the GI50 (A549) was > 100 µM (inactive) and the GI50 (SNB-75) was > 100 µM (inactive). For the same compound, the GI50 (MOLT-4) was > 100 µM (inactive), the GI50 (NCI-H522) was > 100 µM (inactive) and the GI50 (SF-268) was > 100 µM (inactive). For the same compound, the GI50 (RPMI-8226) was > 100 µM (inactive), the GI50 (ACHN) was > 100 µM (inactive) and the GI50 (OVCAR-8) was > 100 µM (inactive). For the same compound, the GI50 (BT-549) was > 100 µM (inactive), the GI50 (NCI-H23) was > 100 µM (inactive) and the GI50 (UACC-257) was > 100 µM (inactive). For the same compound, the GI50 (SF-539) was > 100 µM (inactive), the GI50 (OVCAR-5) was > 100 µM (inactive) and the GI50 (EKVX) was > 100 µM (inactive). The GI50 (IGROV-1) was > 100 µM (inactive).
